Test results reported in patent US20240010590A1 (priority 2020, published 2024).

Tests used:
BVDV [1] = assay: Single-detergent treatment of buffer containing HSA, BVDV inactivation; format: cell-based, bovine viral diarrhea virus; conditions: 14°C±1°C; for inactivation kinetics compared with Triton X-100: FIG. 4A, single detergent 0.09%-0.11%; for virus reduction factor (RF): single detergent 0.1%±0.01%, within 5 minutes
BVDV [2] = assay: Single-detergent treatment of IVIG-containing liquid, BVDV inactivation; format: cell-based, bovine viral diarrhea virus; conditions: single detergent 0.1%±0.01%, 17°C±1°C, within 10 minutes
BVDV [3] = assay: Single-detergent treatment of pdFVIII-containing liquid, BVDV inactivation; format: cell-based, bovine viral diarrhea virus; conditions: single detergent 0.1%±0.01%, 23°C±1°C, within 5 minutes
PRV = format: cell-based, pseudorabies virus; conditions: IVIG-containing liquid, 17°C±1°C
X-MuLV = assay: S/D treatment of HSA-containing liquid, X-MuLV inactivation; format: cell-based, xenotropic murine leukemia virus; conditions: S/D mixture with PS80 and TnBP, 0.1% detergent
Description: FIG. 2: Virus inactivation efficiency of low concentrations of 4-tert-octylbenzyl alcohol polyethoxylate in S/D treatment of human serum albumin (HSA)-containing liquid at 1° C.±1° C. A three-component mixture was used to give final concentrations of 0.08%-0.1% 4-tert-octylbenzyl alcohol polyethoxylate, 0.02%-0.03% Polysorbate 80, 0.02%-0.03% TnBP (side-by-side comparison with same concentration of Triton X-100). Virus inactivation over time is indicated by the virus reduction factor (RF) for two runs with X-MuLV (A and B, respectively). Virus inactivation of S/D treatment using 4-tert-octylbenzyl alcohol polyethoxylate was compared to virus inactivation of S/D treatment using Triton X-100 (“TX-100”). Filled symbols show values with remaining infectivity, non-filled symbols show reduction factors below the limit of detection.
FIG. 3: Virus inactivation efficiency of low concentrations of 4-tert-octylbenzyl alcohol polyethoxylate in S/D treatment of HSA-containing liquid at 19° C.±1° C. A three-component mixture was used to give final concentrations of 0.08%-0.1% 4-tert-octylbenzyl alcohol polyethoxylate, 0.02%-0.03% Polysorbate 80, 0.02%-0.03% TnBP (side-by-side comparison with same concentration of Triton X-100). Virus inactivation over time is indicated by the virus reduction factor (RF) for two runs with X-MuLV (A and B, respectively). Virus inactivation of S/D treatment using 4-tert-octylbenzyl alcohol polyethoxylate was compared to virus inactivation of S/D treatment using Triton X-100 (“TX-100”). Filled symbols show values with remaining infectivity, non-filled symbols show reduction factors below the limit of detection.
The experiments were performed as described for Example 3 of WO 2019/086463. However, for the S/D treatment an S/D mixture comprising 4-tert-octylbenzyl alcohol polyethoxylate was tested and compared to an S/D mixture comprising Triton X-100. The composition of the S/D mixture comprising Triton X-100 was prepared as described in Example 3 of WO 2019/086463. […]

Row | Substance | inactivation kinetics compared with Triton X-100 (BVDV [1]) | virus reduction factor (RF) (BVDV [1]) | virus reduction factor (RF) (BVDV [2]) | virus reduction factor (RF) (BVDV [3]) | inactivation kinetics compared with Triton X-100 (PRV; FIG. 1A, S/D treatment, 0.04%-0.06% detergent) | virus reduction factor (RF) (PRV; S/D mixture with PS80 and TnBP, 0.05% w/w detergent, within 1-2 minutes) | virus reduction factor (RF) (X-MuLV; 1°C±1°C, within 10 minutes) | virus reduction factor (RF) (X-MuLV; 19°C±1°C, within 10 minutes) | virus reduction factor (RF) (X-MuLV; 19°C±1°C, within 30 min)
1 | 4-tert-octylcyclohexyl alcohol polyethoxylate [Triton X-100 reduced] | same inactivation kinetics as Triton X-100 | around 5 | around 5 | around 5 |  |  |  |  | 
2 | 4-tert-octylbenzyl alcohol polyethoxylate | same inactivation kinetics as Triton X-100 | around 5 | around 5 | around 5 | identical inactivation kinetics | around 4 | over 2 | over 2 | around 4
3 | 4-(1,1,3,3-tetramethylbutyl)phenol, ethoxylated [Triton X-100] |  | around 5 | around 5 | around 5 |  |  |  |  | 
4 | n-hexadecyl alcohol polyethoxylate [Brij C10] |  | around 5 |  |  |  |  |  |  | 
